System: RA patients
Experiment: [HDL] determination, Study 1 (RA patients, add-on to MTX)
Type: in vivo, human
Protocol: Double-blind, placebo-controlled add on study in subjects with moderately to severely active RA who have an inadequate response to methotrexate (MTX) (oral or parenteral).
595 subjects randomized to one of 6 dose regimens of Compound 1 (dosed as a [Compound 1:HCl:3H2O]) (3 dose levels administered either once or twice daily) or placebo on top of each subject's stable dose of MTX.
Compound 1 (dosed as a [Compound 1:HCl:3H2O]) is dosed for twelve weeks once daily (q.d.) (50 mg, 100 mg or 200 mg) or twice daily (b.i.d.) (25 mg, 50 mg or 100 mg); or placebo.
At Week 12, the subjects on placebo who have not achieved 20% improvement in swollen joint count (SJC66) and tender joint count (TJC68) are re-randomized automatically to receive Compound 1 (dosed as a [Compound 1:HCl:3H2O]) either at 100 mg q.d. or 50 mg b.i.d. doses in a blinded fashion; subjects on 50 mg q.d. who have not achieved 20% improvement in SJC66 and TJC68 will be assigned to 100 mg q.d. and subjects on 25 mg b.i.d. that have not achieved a 20% improvement in SJC66 and TJC68 will be assigned to 50 mg b.i.d. Subjects who switch treatment at week 12 are handled as if they discontinued at week 12 for the purpose of statistical analysis, whereas subjects in the other groups will maintain their randomized treatment until Week 24.
This assay relies on a homogeneous enzymatic colorimetric test. In the presence of magnesium ions, dextran sulfate selectively forms water-soluble complexes with LDL, VLDL and chylomicrons which are resistant to PEG-modified enzymes.
The cholesterol concentration of [HDL]-cholesterol is determined enzymatically by cholesterol esterase and cholesterol oxidase coupled with PEG to the amino groups (approx. 40%).
In the presence of peroxidase, the hydrogen peroxide generated reacts with 4-amino-antipyrine and Sodium N-(2-hydroxy-3-sulfopropyl)-3,5-dimethoxyaniline (HSDA) to form a purple-blue dye. The color intensity of this dye is directly proportional to the cholesterol concentration and is measured photometrically.
Human serum and plasma samples [HDL] determination was done on a Roche/Hitachi Cobas c 701/702 system which automatically calculate the analyte concentration of each sample. Samples containing precipitates are centrifuged before performing the assay.

[1] = 2 x 50 mg b.i.d. (N = 85), week 12
[2] = 2 x 100 mg b.i.d. (N = 84), week 1
[3] = 2 x 100 mg b.i.d. (N = 84), week 2
[4] = 2 x 100 mg b.i.d. (N = 84), week 4
[5] = 2 x 100 mg b.i.d. (N = 84), week 8
[6] = 2 x 100 mg b.i.d. (N = 84), week 12
[7] = continued 25 mg b.i.d (N = 69), week 1
[8] = continued 25 mg b.i.d (N = 69), week 2
[9] = continued 25 mg b.i.d (N = 69), week 4
[10] = continued 25 mg b.i.d (N = 69), week 8
[11] = continued 25 mg b.i.d (N = 69), week 12
[12] = continued 25 mg b.i.d (N = 69), week 16
[13] = continued 25 mg b.i.d (N = 69), week 20
[14] = continued 25 mg b.i.d (N = 69), week 24
[15] = continued 50 mg b.i.d. (N = 85), week 1
[16] = continued 50 mg b.i.d. (N = 85), week 2
[17] = continued 50 mg b.i.d. (N = 85), week 4
[18] = continued 50 mg b.i.d. (N = 85), week 8
[19] = continued 50 mg b.i.d. (N = 85), week 12
[20] = continued 50 mg b.i.d. (N = 85), week 16
[21] = continued 50 mg b.i.d. (N = 85), week 20
[22] = continued 50 mg b.i.d. (N = 85), week 24
[23] = continued 50 mg q.d. (N = 63), week 1
[24] = continued 50 mg q.d. (N = 63), week 2

`O=C(Nc1nc2cccc(-c3ccc(CN4CCS(=O)(=O)CC4)cc3)n2n1)C1CC1` [Compound 1, cyclopropanecarboxylic acid {5-[4-(1,1-dioxo-thiomorpholin-4-ylmethyl)-phenyl]-[1,2,4]triazolo[1,5-a]pyridin-2yl}-amide] was tested, and the “[HDL] Mean CFB - 12 weeks results” value [1] was 0.10 mmol/L, the “[HDL] Mean percentage CFB - 12 weeks results” value [1] was 9% and the “[HDL] Median CFB - 12 weeks results” value [1] was 0.10 mmol/L. The “[HDL] Mean CFB - 12 weeks results” value [2] was 0.12 mmol/L, the “[HDL] Mean percentage CFB - 12 weeks results” value [2] was 9% and the “[HDL] Median CFB - 12 weeks results” value [2] was 0.10 mmol/L. The “[HDL] Mean CFB - 12 weeks results” value [3] was 0.20 mmol/L, the “[HDL] Mean percentage CFB - 12 weeks results” value [3] was 15% and the “[HDL] Median CFB - 12 weeks results” value [3] was 0.18 mmol/L. For the same compound, the “[HDL] Mean CFB - 12 weeks results” value [4] was 0.25 mmol/L, the “[HDL] Mean percentage CFB - 12 weeks results” value [4] was 20% and the “[HDL] Median CFB - 12 weeks results” value [4] was 0.25 mmol/L. For the same compound, the “[HDL] Mean CFB - 12 weeks results” value [5] was 0.26 mmol/L, the “[HDL] Mean percentage CFB - 12 weeks results” value [5] was 21% and the “[HDL] Median CFB - 12 weeks results” value [5] was 0.25 mmol/L. The “[HDL] Mean CFB - 12 weeks results” value [6] was 0.30 mmol/L, the “[HDL] Mean percentage CFB - 12 weeks results” value [6] was 23% and the “[HDL] Median CFB - 12 weeks results” value [6] was 0.25 mmol/L. For the same compound, the “[HDL] Mean CFB - 24 weeks results” value [7] was 0.01 mmol/L, the “[HDL] Mean percentage CFB - 24 weeks results” value [7] was 0.74% and the “[HDL] Median CFB - 24 weeks results” value [7] was 0.00 mmol/L. The “[HDL] Mean CFB - 24 weeks results” value [8] was 0.05 mmol/L, the “[HDL] Mean percentage CFB - 24 weeks results” value [8] was 3.77% and the “[HDL] Median CFB - 24 weeks results” value [8] was 0.05 mmol/L. For the same compound, the “[HDL] Mean CFB - 24 weeks results” value [9] was 0.07 mmol/L, the “[HDL] Mean percentage CFB - 24 weeks results” value [9] was 5.04% and the “[HDL] Median CFB - 24 weeks results” value [9] was 0.08 mmol/L. The “[HDL] Mean CFB - 24 weeks results” value [10] was 0.08 mmol/L, the “[HDL] Mean percentage CFB - 24 weeks results” value [10] was 6.08% and the “[HDL] Median CFB - 24 weeks results” value [10] was 0.10 mmol/L. For the same compound, the “[HDL] Mean CFB - 24 weeks results” value [11] was 0.07 mmol/L, the “[HDL] Mean percentage CFB - 24 weeks results” value [11] was 5.78% and the “[HDL] Median CFB - 24 weeks results” value [11] was 0.05 mmol/L. The “[HDL] Mean CFB - 24 weeks results” value [12] was 0.08 mmol/L, the “[HDL] Mean percentage CFB - 24 weeks results” value [12] was 6.74% and the “[HDL] Median CFB - 24 weeks results” value [12] was 0.05 mmol/L. The “[HDL] Mean CFB - 24 weeks results” value [13] was 0.05 mmol/L, the “[HDL] Mean percentage CFB - 24 weeks results” value [13] was 5.08% and the “[HDL] Median CFB - 24 weeks results” value [13] was 0.07 mmol/L. For the same compound, the “[HDL] Mean CFB - 24 weeks results” value [14] was 0.08 mmol/L, the “[HDL] Mean percentage CFB - 24 weeks results” value [14] was 6.59% and the “[HDL] Median CFB - 24 weeks results” value [14] was 0.09 mmol/L. For the same compound, the “[HDL] Mean CFB - 24 weeks results” value [15] was 0.03 mmol/L, the “[HDL] Mean percentage CFB - 24 weeks results” value [15] was 4.29% and the “[HDL] Median CFB - 24 weeks results” value [15] was 0.05 mmol/L. For the same compound, the “[HDL] Mean CFB - 24 weeks results” value [16] was 0.12 mmol/L, the “[HDL] Mean percentage CFB - 24 weeks results” value [16] was 9.99% and the “[HDL] Median CFB - 24 weeks results” value [16] was 0.10 mmol/L. The “[HDL] Mean CFB - 24 weeks results” value [17] was 0.13 mmol/L, the “[HDL] Mean percentage CFB - 24 weeks results” value [17] was 11.50% and the “[HDL] Median CFB - 24 weeks results” value [17] was 0.13 mmol/L. For the same compound, the “[HDL] Mean CFB - 24 weeks results” value [18] was 0.13 mmol/L, the “[HDL] Mean percentage CFB - 24 weeks results” value [18] was 11.21% and the “[HDL] Median CFB - 24 weeks results” value [18] was 0.14 mmol/L. For the same compound, the “[HDL] Mean CFB - 24 weeks results” value [19] was 0.10 mmol/L, the “[HDL] Mean percentage CFB - 24 weeks results” value [19] was 9.27% and the “[HDL] Median CFB - 24 weeks results” value [19] was 0.10 mmol/L. For the same compound, the “[HDL] Mean CFB - 24 weeks results” value [20] was 0.13 mmol/L, the “[HDL] Mean percentage CFB - 24 weeks results” value [20] was 11.13% and the “[HDL] Median CFB - 24 weeks results” value [20] was 0.15 mmol/L. For the same compound, the “[HDL] Mean CFB - 24 weeks results” value [21] was 0.15 mmol/L, the “[HDL] Mean percentage CFB - 24 weeks results” value [21] was 12.24% and the “[HDL] Median CFB - 24 weeks results” value [21] was 0.16 mmol/L. For the same compound, the “[HDL] Mean CFB - 24 weeks results” value [22] was 0.11 mmol/L, the “[HDL] Mean percentage CFB - 24 weeks results” value [22] was 10.05% and the “[HDL] Median CFB - 24 weeks results” value [22] was 0.12 mmol/L. For the same compound, the “[HDL] Mean CFB - 24 weeks results” value [23] was 0.02 mmol/L, the “[HDL] Mean percentage CFB - 24 weeks results” value [23] was 1.75% and the “[HDL] Median CFB - 24 weeks results” value [23] was 0.01 mmol/L. For the same compound, the “[HDL] Mean CFB - 24 weeks results” value [24] was 0.07 mmol/L, the “[HDL] Mean percentage CFB - 24 weeks results” value [24] was 4.74% and the “[HDL] Median CFB - 24 weeks results” value [24] was 0.08 mmol/L. The “[HDL] Mean CFB - 24 weeks results” value (continued 50 mg q.d. (N = 63), week 4) was 0.06 mmol/L.

From patent publication US10376520B2, “Methods for the treatment of cardiovascular disorders” (Galapagos NV, priority 2015, dated 2019)
